For one test, the target named is Adenosylhomocysteinase (Homo sapiens, UniProt P23526). Put plainly: Inhibitory activity against S-adenosyl-homocysteine hydrolase. Also on record: species or system herpes simplex virus. The note with it: read-out: I50.
The next test has as its system L929. Put plainly: Inhibitory activity against herpes simplex virus type 1 grown in L929 cells. It is filed as functional, Mus musculus.

Structures are written as SMILES. pIC50: −log10 of the molar value.

Chain of Adenosylhomocysteinase (P23526 whole entry): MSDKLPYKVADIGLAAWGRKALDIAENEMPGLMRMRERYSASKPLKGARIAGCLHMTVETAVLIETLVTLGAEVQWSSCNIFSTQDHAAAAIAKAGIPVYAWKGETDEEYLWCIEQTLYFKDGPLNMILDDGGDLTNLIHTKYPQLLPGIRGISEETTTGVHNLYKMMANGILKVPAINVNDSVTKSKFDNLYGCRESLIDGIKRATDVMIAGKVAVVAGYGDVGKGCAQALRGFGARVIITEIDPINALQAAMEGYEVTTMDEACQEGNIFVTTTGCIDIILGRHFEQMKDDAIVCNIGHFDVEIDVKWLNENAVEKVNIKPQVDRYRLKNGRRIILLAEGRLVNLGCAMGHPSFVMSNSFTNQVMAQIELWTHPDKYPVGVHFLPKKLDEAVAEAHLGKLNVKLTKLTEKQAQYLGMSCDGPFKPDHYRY

Regarding `Nc1nccc2c1ncn2[C@@H]1O[C@H](CO)[C@@H](O)[C@H]1O`, on Adenosylhomocysteinase, the pIC50 was 5.40.

Turning to `Nc1nccc2c1ncn2[C@@H]1O[C@H](CO)[C@@H](O)[C@@H]1O`, in the test with L929, the MED50 was found to be 189 µg/mL and the Virus rating is reported as 0.8. In addition, the pIC50 at Adenosylhomocysteinase was 4.00.

For `Nc1ncnc2c1ncn2[C@@H]1O[C@H](CO)[C@@H](O)[C@@H]1O` [VIDARABINE], in the test on L929, the MED50 is 0.8 µg/mL and the Virus rating amounted to 3.7.

These data come from ChEMBL document CHEMBL1121939, “1-beta-D-arabinofuranosyl-1H-imidazo[4,5-c]pyridine (ara-3-deazaadenine)” (J Med Chem, 1982).
